Data as given in patent US9216973B2, “Insecticidal compounds” (Syngenta Participations AG, priority 2008, dated 2015).

Columns and labels:
Type in all cases: in vivo
[1] = test system: Tetranychus urticae (Two-spotted spider mite); test: Tetranychus urticae bean leaf disc spray test; conditions: foliar, 192 h, 200 ppm spray on bean leaf discs, mite populations of mixed ages, egg, larval and adult mortality 8 days later, read-out: control of Tetranychus urticae
Summary of the method: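 Leaf discs cut from bean plants were laid on agar in 24-well microtiter plates and sprayed with the test solutions at 200 ppm. Once dry, each disc was infested with a mixed-age population of two-spotted spider mites. Eight days later the discs were assessed for egg, larval and adult mortality.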

[2] = test system: Plutella xylostella (Diamond back moth); test: Plutella xylostella larvae test on artificial diet; conditions: 144 h, 200 ppm (concentration in well 18 ppm), artificial diet, L2 larvae, larval mortality and growth regulation after 6 days
Summary of the method: (§1)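 Diabrotica balteata L2 larvae (6-10/well) and Plutella xylostella L2 larvae (7-12/well) were placed on diet treated at 200 ppm (18 ppm in well), scored after 5 and 6 days for larval mortality and growth regulation. Heliothis virescens eggs (0-24 h) on treated diet, scored after 4 days for egg/larval mortality and growth regulation; Thrips tabaci on sprayed (200 ppm) sunflower leaf discs, mortality checked after 7 days.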

[3] = test system: Diabrotica balteata (Corn root worm); test: Diabrotica balteata larvae test on artificial diet; conditions: 120 h, 200 ppm (concentration in well 18 ppm), artificial diet, L2 larvae, larval mortality and growth regulation after 5 days
Summary of the method: as §1

[4] = test system: Thrips tabaci (Onion thrips); test: Thrips tabaci sunflower leaf disc spray test; conditions: foliar, 168 h, 200 ppm spray on sunflower leaf discs, population of mixed ages, mortality after 7 days
Summary of the method: as §1

[5] = test system: Heliothis virescens (Tobacco budworm); test: Heliothis virescens egg test on artificial diet; conditions: 96 h, 200 ppm (concentration in well 18 ppm), eggs 0-24 h old on artificial diet, egg mortality, larval mortality, growth regulation after 4 days, read-out: control of Heliothis virescens
Summary of the method: as §1

Measured: pest or weed control at 200 ppm

CC1(NC(=O)c2ccc(C3=NOC(c4cc(Cl)cc(Cl)c4)(C(F)(F)F)C3Br)c3ccccc23)CSC1 (stereo not shown) [A43]
≥ 80%: all assays above

CC1(NC(=O)c2ccc(C3=NOC(c4cc(Cl)cc(Cl)c4)(C(F)(F)F)C3)c3ccccc23)CSC1 (stereo not shown) [A1]
≥ 80%: all assays above
